Measured values: paper PMC3726336, “Product inhibition of cellulases studied with ^14C-labeled cellulose substrates” (Biotechnology for Biofuels, 2013)
Where two headings read alike, the source gives them in different places.

Key:
CtCel7A = CtCel7A (Chaetomium thermophilum, UniProt A7WNU1); experiment: Inhibition of synergistic hydrolysis of 14C-BC by CtCel7A (supplemented with EG TrCel5A); assay type: biochemical; conditions: 14C-BC substrate, read-out: IC50 for cellobiose
Protocol: To study the cellobiose inhibition of GH7 CBHs, the synergistic hydrolysis of ^14C-BC in the presence of added cellobiose was followed (Figure 3, Additional file 1: Figures S1 and S2). Because the cellobiose inhibition of the EG TrCel5A is much weaker than that of GH7 CBHs, the inhibition of synergistic hydrolysis apparently reflects the inhibition of CBH. The strength of cellobiose inhibition was analyzed using plots of (DCB/DCB=0) versus [cellobiose], where DCB and DCB=0 represent the degree of conversion of ^14C-BC in the presence and absence of cellobiose, respectively (Figure 4, Additional file 1: Figure S3). In the case of experiments without added cellobiose, the reactions were provided with N188BG to prevent the inhibition of the CBH by the cellobiose released during hydrolysis. Experiments with no added cellobiose and without BG were also conducted. […] Therefore, the concentration of the cellobiose released during hydrolysis was added to the concentration of externally supplied cellobiose in generating the plots in Figure 4 and Additional file 1: Figure S3. For the calculation of IC50 values, the data were first fitted to hyperbolae:
(§1) where [CB] is the concentration of cellobiose; [^14CBC] is the concentration of ^14C-BC used in the experiment; and C1, C2 and H are empirical constants. Equation 5 differs from Equation 1 by the presence of constant H. H was included to improve the fit and is a constant that accounts for the background radioactivity (the degree of conversion that is independent of CBH). The degree of conversion resulting from the activity of the EG was measured in a separate experiment (Additional file 1: Figure S4) and was subtracted from the degree of conversion resulting from the synergistic hydrolysis. Thus, in the case of complete inhibition, H should have a value of zero. […] Provided with the values of C1, C2 and H, the value of IC50 was calculated as follows: […]
Using the time course data measured in the presence and absence of cellobiose, the IC50 values were first found separately for each time point (Figure 4A). […]

TaCel7A = TaCel7A (Thermoascus aurantiacus, UniProt A7WNU2); experiment: Inhibition of synergistic hydrolysis of 14C-BC by TaCel7A (supplemented with EG TrCel5A); assay type: biochemical; conditions: 14C-BC substrate, read-out: IC50 for cellobiose
Protocol: To study the cellobiose inhibition of GH7 CBHs, the synergistic hydrolysis of ^14C-BC in the presence of added cellobiose was followed (Figure 3, Additional file 1: Figures S1 and S2). Because the cellobiose inhibition of the EG TrCel5A is much weaker than that of GH7 CBHs, the inhibition of synergistic hydrolysis apparently reflects the inhibition of CBH. The strength of cellobiose inhibition was analyzed using plots of (DCB/DCB=0) versus [cellobiose], where DCB and DCB=0 represent the degree of conversion of ^14C-BC in the presence and absence of cellobiose, respectively (Figure 4, Additional file 1: Figure S3). […]
as §1, with “hydrolysis.” for “hydrolysis. Thus, in the case of complete inhibition, H should have a value of zero.”

TrCel12A = tested on: TrCel12A; set-up: method as in PMID 15129433; conditions: 3H-reduced amorphous cellulose, cellobiose 1 mM – 100 mM; cited from earlier work

Sequence of CtCel7A (A7WNU1 entry or part of it): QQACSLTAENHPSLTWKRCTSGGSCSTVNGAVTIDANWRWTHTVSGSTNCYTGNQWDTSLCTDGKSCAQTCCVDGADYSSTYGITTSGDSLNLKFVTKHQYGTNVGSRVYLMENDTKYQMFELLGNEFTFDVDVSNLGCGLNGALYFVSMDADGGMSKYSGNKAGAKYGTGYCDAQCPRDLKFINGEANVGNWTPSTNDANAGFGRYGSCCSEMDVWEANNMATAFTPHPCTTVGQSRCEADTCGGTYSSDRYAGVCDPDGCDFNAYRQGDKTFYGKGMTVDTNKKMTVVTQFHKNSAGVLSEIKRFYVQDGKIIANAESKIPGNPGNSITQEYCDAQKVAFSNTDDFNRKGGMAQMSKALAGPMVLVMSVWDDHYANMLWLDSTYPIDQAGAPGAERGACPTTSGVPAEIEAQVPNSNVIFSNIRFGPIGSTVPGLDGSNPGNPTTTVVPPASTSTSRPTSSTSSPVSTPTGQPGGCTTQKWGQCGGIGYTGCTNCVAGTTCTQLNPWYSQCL
Sequence of TaCel7A (A7WNU2 entry or part of it): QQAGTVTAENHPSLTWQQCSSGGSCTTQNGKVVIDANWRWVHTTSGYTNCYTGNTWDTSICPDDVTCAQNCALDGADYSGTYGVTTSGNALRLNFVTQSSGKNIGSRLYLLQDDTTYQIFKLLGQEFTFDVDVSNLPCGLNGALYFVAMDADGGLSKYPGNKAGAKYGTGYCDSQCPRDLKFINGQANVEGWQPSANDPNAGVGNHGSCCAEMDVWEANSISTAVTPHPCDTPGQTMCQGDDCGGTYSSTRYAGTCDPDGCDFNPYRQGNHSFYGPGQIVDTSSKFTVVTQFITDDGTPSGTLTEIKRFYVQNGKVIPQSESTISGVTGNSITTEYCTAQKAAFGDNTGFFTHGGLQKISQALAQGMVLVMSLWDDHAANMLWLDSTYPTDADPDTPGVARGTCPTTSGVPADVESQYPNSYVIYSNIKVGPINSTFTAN

O=C[C@H](O)[C@@H](O)[C@H](O[C@@H]1O[C@H](CO)[C@@H](O)[C@H](O)[C@H]1O)[C@H](O)CO [cellobiose, Cellobiose]
IC50 (CtCel7A; 25°C): 410 ± 60 µM
IC50 (CtCel7A; 35°C): 1080 ± 220 µM
IC50 (CtCel7A; 50°C, IC50 increased with hydrolysis time): 2480 ± 910 µM
IC50 (TaCel7A; 35°C): 580 ± 350 µM
IC50 (TaCel7A; 50°C): 930 ± 100 µM
Effect of cellobiose on activity (TrCel12A): apparent activation
